Source: US9000022B2 (Exelixis Patent Company LLC, priority 2005, dated 2015)

Tested on: LXRα and/or LXRβ
Experiment: Co-transfection assay (LXRE luciferase reporter, CV-1 cells)
Format: cell-based, human
Conditions: tested as described in Example 33; IC50 or EC50 for LXRα and/or LXRβ, isoform not specified; read-out: activity (IC50 or EC50 for LXR)
Procedure, shortened: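 Luciferase signal measures LXR-RXR transcriptional activation in transiently transfected CV-1 cells carrying human LXRα or LXRβ, RXRα and a single-copy LXRE reporter. Cells were exposed to compound for 20 h at 37 °C with at most 1% DMSO, using 10 μM final for screening. Potency was derived from 4-parameter fits of 8-point, half-log dose curves averaged over ≥3 runs, and efficacy was expressed as % of a reference agonist.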

IC50 or EC50 (potency, activation or inhibition) [µM]	SMILES
< 1	CC(C)(O)c1cn(-c2ccc(-c3ccc(CO)c(S(C)(=O)=O)c3)cc2Cl)c(-c2cccc(F)c2Cl)n1 [Example 153, 2-(2-(2-chloro-3-fluorophenyl)-1-(3-chloro-4′-(hydroxymethyl)-3′-(methylsulfonyl)biphenyl-4-yl)-1H-imidazol-4-yl)propan-2-ol]
< 1	CCS(=O)(=O)c1cccc(-c2ccc(-n3cc(C(C)(C)O)nc3-c3c(C)cccc3Cl)c(Cl)c2)c1 [Example 154, 2-(1-(3-chloro-3′-(ethyl-sulfonyl)biphenyl-4-yl)-2-(2-chloro-6-methylphenyl)-1H-imidazol-4-yl)propan-2-ol]
< 1	Cc1cccc(Cl)c1-c1nc(C(C)(C)O)cn1-c1ccc(-c2ccc(CO)c(S(C)(=O)=O)c2)cc1Cl [Example 155, 2-(1-(3-chloro-4′-(hydroxy-methyl)-3′-(methylsulfonyl)biphenyl-4-yl)-2-(2-chloro-6-methylphenyl)-1H-imidazol-4-yl)propan-2-ol]
< 1	Cc1cccc(Cl)c1-c1nc(C(C)(C)O)cn1-c1ccc(-c2cccc(S(C)(=O)=O)c2)cc1Cl [Example 156, 2-(1-(3-chloro-3′-(methyl-sulfonyl)biphenyl-4-yl)-2-(2-chloro-6-methylphenyl)-1H-imidazol-4-yl)propan-2-ol]
< 1	CC(C)(O)c1cn(-c2ccc(-c3cccc(S(C)(=O)=O)c3)cc2Cl)c(-c2c(F)cccc2F)n1 [Example 157, 2-(1-(3-chloro-3′-(methyl-sulfonyl)biphenyl-4-yl)-2-(2,6-difluorophenyl)-1H-imidazol-4-yl)propan-2-ol]
< 1	CCS(=O)(=O)c1cccc(-c2ccc(-n3cc(C(C)(C)O)nc3-c3c(F)cccc3F)c(Cl)c2)c1 [Example 158, 2-(1-(3-chloro-3′-(ethyl-sulfonyl)biphenyl-4-yl)-2-(2,6-difluorophenyl)-1H-imidazol-4-yl)propan-2-ol]
< 1	CC(C)(O)c1cn(-c2ccc(-c3ccc(CO)c(S(C)(=O)=O)c3)cc2Cl)c(-c2c(F)cccc2F)n1 [Example 159, 2-(1-(3-chloro-4′-(hydroxymethyl)-3′-(methylsulfonyl)biphenyl-4-yl)-2-(2,6-difluorophenyl)-1H-imidazol-4-yl)propan-2-ol]
< 1	Cc1c(Cl)cccc1-c1nc(C(C)(C)O)cn1-c1ccc(-c2ccc(CO)c(S(C)(=O)=O)c2)cc1Cl [Example 160, 2-(2-(3-chloro-2-methylphenyl)-1-(3-chloro-4′-(hydroxymethyl)-3′-(methylsulfonyl)biphenyl-4-yl)-1H-imidazol-4-yl)propan-2-ol]
< 1	CC(C)c1ccccc1-c1nc(C(C)(C)O)cn1-c1ccc(-c2cccc(S(C)(=O)=O)c2)cc1Cl [Example 161, 2-(1-(3-chloro-3′-(methyl-sulfonyl)biphenyl-4-yl)-2-(2-isopropylphenyl)-1H-imidazol-4-yl)propan-2-ol]

More lines, now with the values behind:

SMILES	IC50 or EC50 (potency, activation or inhibition) [µM]
CC(C)(O)c1cn(-c2ccc(-c3cccc(S(C)(=O)=O)c3)cc2Cl)c(-c2cccc(Cl)c2Cl)n1 [Example 140, 2-(1-(3-chloro-3′-(methyl-sulfonyl)biphenyl-4-yl)-2-(2,3-dichlorophenyl)-1H-imidazol-4-yl)propan-2-ol]	< 1
CCS(=O)(=O)c1cccc(-c2ccc(-n3cc(C(C)(C)O)nc3-c3cccc(Cl)c3Cl)c(Cl)c2)c1 [Example 141, 2-(1-(3-chloro-3′-(ethyl-sulfonyl)biphenyl-4-yl)-2-(2,3-dichlorophenyl)-1H-imidazol-4-yl)propan-2-ol]	< 1
CC(C)(O)c1cn(-c2ccc(-c3cccc(S(C)(=O)=O)c3)cc2Cl)c(-c2c(Cl)cccc2Cl)n1 [Example 142, 2-(1-(3-chloro-3′-(methyl-sulfonyl)biphenyl-4-yl)-2-(2,6-dichlorophenyl)-1H-imidazol-4-yl)propan-2-ol]	< 1
Cc1c(Cl)cccc1-c1nc(C(C)(C)O)cn1-c1ccc(-c2cccc(S(C)(=O)=O)c2)cc1Cl [Example 143, 2-(2-(3-chloro-2-methylphenyl)-1-(3-chloro-3′-(methylsulfonyl)biphenyl-4-yl)-1H-imidazol-4-yl)propan-2-ol]	< 1
CCS(=O)(=O)c1cccc(-c2ccc(-n3cc(C(C)(C)O)nc3-c3cccc(Cl)c3C)c(Cl)c2)c1 [Example 144, 2-(2-(3-chloro-2-methylphenyl)-1-(3-chloro-3′-(ethylsulfonyl)biphenyl-4-yl)-1H-imidazol-4-yl)propan-2-ol]	< 1
CC(C)(O)c1cn(-c2ccc(-c3cccc(S(C)(=O)=O)c3)cc2Cl)c(-c2c(F)cccc2Cl)n1 [Example 145, 2-(1-(3-chloro-3′-(methyl-sulfonyl)biphenyl-4-yl)-2-(2-chloro-6-fluorophenyl)-1H-imidazol-4-yl)propan-2-ol]	< 1
CCS(=O)(=O)c1cccc(-c2ccc(-n3cc(C(C)(C)O)nc3-c3c(F)cccc3Cl)c(Cl)c2)c1 [Example 146, 2-(1-(3-chloro-3′-(ethyl-sulfonyl)biphenyl-4-yl)-2-(2-chloro-6-fluorophenyl)-1H-imidazol-4-yl)propan-2-ol]	< 1
CC(C)(O)c1cn(-c2ccc(-c3ccc(CO)c(S(C)(=O)=O)c3)cc2Cl)c(-c2c(F)cccc2Cl)n1 [Example 147, 2-(1-(3-chloro-4′-(hydroxymethyl)-3′-(methylsulfonyl)biphenyl-4-yl)-2-(2-chloro-6-fluorophenyl)-1H-imidazol-4-yl)propan-2-ol]	< 1
CC(C)(O)c1cn(-c2ccc(-c3ccc(CO)c(S(C)(=O)=O)c3)cc2Cl)c(-c2cccc(Cl)c2Cl)n1 [Example 148, 2-(1-(3-chloro-4′-(hydroxymethyl)-3′-(methylsulfonyl)biphenyl-4-yl)-2-(2,3-dichlorophenyl)-1H-imidazol-4-yl)propan-2-ol]	< 1
CC(C)(O)c1cn(-c2ccc(-c3ccc(CO)c(S(C)(=O)=O)c3)cc2Cl)c(-c2c(Cl)cccc2Cl)n1 [Example 149, 2-(1-(3-chloro-4′-(hydroxymethyl)-3′-(methylsulfonyl)biphenyl-4-yl)-2-(2,6-dichlorophenyl)-1H-imidazol-4-yl)propan-2-ol]	< 1
CCS(=O)(=O)c1cccc(-c2ccc(-n3cc(C(C)(C)O)nc3-c3c(Cl)cccc3Cl)c(Cl)c2)c1 [Example 150, 2-(1-(3-chloro-3′-(ethyl-sulfonyl)biphenyl-4-yl)-2-(2,6-dichlorophenyl)-1H-imidazol-4-yl)propan-2-ol]	< 1
CC(C)(O)c1cn(-c2ccc(-c3cccc(S(C)(=O)=O)c3)cc2Cl)c(-c2cccc(F)c2Cl)n1 [Example 151, 2-(1-(3-chloro-3′-(methyl-sulfonyl)biphenyl-4-yl)-2-(2-chloro-3-fluorophenyl)-1H-imidazol-4-yl)propan-2-ol]	< 1
CCS(=O)(=O)c1cccc(-c2ccc(-n3cc(C(C)(C)O)nc3-c3cccc(F)c3Cl)c(Cl)c2)c1 [Example 152, 2-(1-(3-chloro-3′-(ethyl-sulfonyl)biphenyl-4-yl)-2-(2-chloro-3-fluorophenyl)-1H-imidazol-4-yl)propan-2-ol]	< 1
